From article PMC8719067 (Haematologica, 2021)

Tests used:
[1] = tested on: B-cell lines or primary CLL cells; conditions: cited from earlier work
[2] = tested on: MEC-1 cells; assay: cell cycle profile; type: cell-based; conditions: MEC-1, 24 hours
[3] = tested on: MEC-1 cells with either wild-type or mutant BTK; assay: reverse-phase protein array; conditions: RPPA
[4] = tested on: MEC-1 cells; assay: cell death; type: cell-based; conditions: MEC-1, 1, 24 hours
[5] = tested on: MEC-1 cells overexpressing BTKWT; assay: reverse-phase protein array; conditions: RPPA; for decrease in phospho-ERK: BTKWT cells
[6] = tested on: chronic lymphocytic leukemia; conditions: patients with CLL, median of 3.4 years of follow-up; cited from earlier work
[7] = tested on: B-cell malignancies; conditions: phase 1b clinical trial; cited from earlier work
[8] = tested on: BCR pathway in primary CLL cells; assay: immunoblot of BCR pathway proteins in primary CLL cells; type: cell-based, human; conditions: BTKWT and BTKT474F (gate-keeper mutation)
[9] = tested on: PLCg2 phosphorylation in Ramos Burkitt lymphoma cells; assay: phospho-PLCg2 inhibition in the Ramos cell line; type: cell-based; conditions: Homo sapiens, read-out: IC50 of inhibition of PLCg2 phosphorylation

| SMILES | cell death induced in vitro [1] | cell cycle profiles [2] | decrease in PD1 levels (ibrutinib vs vecabrutinib) [3] | cell death [4] | decrease in phospho-ERK [5] [log] | cumulative incidence of progression [6] [%] | S727 phosphorylation on STAT3 ([3]; WT and mutant cell lines) | Y705 phosphorylation on STAT3 ([3]; WT and mutant cell lines) | phospho-S6K ([3]; all three cell types, compared to ibrutinib) | cleaved caspase 7 ([3]; all transduced cell lines) | tolerability [7] | BCR pathway (phosphorylation of BTK, ERK, and S6) signaling [8] | IC50 [9] [nM] | responses for all proteins compared to those to ibrutinib ([5]; WT cells) |
| --- | --- | --- | --- | --- | --- | --- | --- | --- | --- | --- | --- | --- | --- | --- |
| CC#CC(=O)N1CCC[C@H]1c1nc(-c2ccc(C(=O)Nc3ccccn3)cc2)c2c(N)nccn12 [acalabrutinib] | limited | – | – | – | – | – | – | – | – | – | – | – | – | – |
| C=CC(=O)N1CCC[C@@H](n2nc(-c3ccc(Oc4ccccc4)cc3)c3c(N)ncnc32)C1 [ibrutinib, reference compound] | limited | did not alter | larger decrease | 15-20% | 2 | 19 | – | – | – | – | – | – | – | – |
| NC(=O)[C@H]1CCN(c2ncnc(N)c2F)C[C@@H]1N1CCC[C@@H](Nc2cc(Cl)cc(C(F)(F)F)c2)C1=O [vecabrutinib] | – | did not alter | – | 15-20% | 2 | – | decreased | decreased | profoundly decreased | increased | well-tolerated | inhibited | 13 ± 6 | deeper or similar responses |
